Source: patent publication US20050148534A1, “Small molecule compositions and methods for increasing drug efficiency using compositions thereof” (priority 2003, published 2005)

Columns and labels:
[1] = target: T1, Human thymidine kinase 1 (TK1) (Homo sapiens, UniProt P04183); assay: Thymidine kinase coupled (kinetic) ATP depletion assay; assay type: biochemical; details: initial velocity relative to thymidine; 100 μM conjugate
T1 construct: His tag (from pET28b(+)) (N); made in house; host or cells: E. coli BL21-codon plus
T1 sequence (P04183 1-234): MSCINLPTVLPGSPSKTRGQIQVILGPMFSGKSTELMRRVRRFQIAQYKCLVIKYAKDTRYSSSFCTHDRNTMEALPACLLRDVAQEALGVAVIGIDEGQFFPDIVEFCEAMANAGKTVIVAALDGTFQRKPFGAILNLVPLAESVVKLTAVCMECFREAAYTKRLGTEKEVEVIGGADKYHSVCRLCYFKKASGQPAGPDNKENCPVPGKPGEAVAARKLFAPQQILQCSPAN
Experimental: Thymidine kinase, viral thymidine kinase, TK-1 deoxycytidine kinase, and deoxyguanosine kinase activities are determined by subjecting a first end of a linker used in synthesizing linker-substrate constructs to a first test. The first test may involve observing ADP formation, an obligatory co-product of phospho group transfer from ATP which is catalyzed by the kinase to the C5′ hydroxyl group or its equivalent in the nucleoside or nucleoside analog. Formation of ADP is followed by a coupled enzyme assay well known in the art. ADP, formed from kinase phosphorylation, is used by pyruvate kinase to generate pyruvate from phosphoenolpyruvate which in turn is converted to lactate by lactate dehydrogenase. The lactate results in the consumption of NADH which is followed spectrophotometrically. The rate of nucleoside phosphorylation is then directly related to the rate of decrease in the observed NADH signal.
TK1 was amplified using PCR with forward primer 5′-[…]-3′ and reverse primer 5′-[…]-3′. The PCR product was digested with Nde I and Hind III. An N-terminal His-tagged TK1 construct, TK1/pET28b(+), was generated by subcloning TK1 into the Nde I and Hind III sites of prokaryotic expression vector pET28b (+) (Novagen, San Diego, Calif.). TK1 was expressed from TK1/pET28b(+) using E. coli strain BL21-codon plus (Stratagene, San Diego, Calif.) and purified by Ni column chromatography.
A coupled (kinetic) ATP depletion assay was developed to measure thymidine kinase activity. The reaction contained 100 mM Tris HCl, pH 7.5, 20 mM MgCl2, 100 mM KCl, 0.4 mM PEP, 0.2 mM NADH, Pyruvate Kinase (0.7 units)/Lactate Dehydrogenase (1.0 unit) (Sigma #PO294), 2.5-10 μg Thymidine Kinase, 100 μM thymidine or thymidine-drug conjugate in a volume of 75 μl. ATP (5 mM in 25 μl H2O) was added to initiate the reaction and the velocity of ATP depletion was monitored at 340 nm continuously for 15 minutes.

tubulin = assay: Fluorescence-based microtubule polymerization assay (MPA); assay type: biochemical; details: mean percentage of paclitaxel or vinblastine activity; 0.75-10 micromolar
From the text: Drug-linker constructs may further be screened using functional assays predictive of biological activity. […] Tubulin assembly or inhibition thereof may be monitored by fluorescence using the CytoDYNAMIX Screen™ 10 kit available from Cytoskeleton (1830 S. Acoma St., Denver, Colo.). […] Emission is monitored at 405 nm with excitation at 360 nm. […] Tubulin assembly or inhibition may also be monitored by light scattering which is approximated by the apparent absorption at 350 nm. For paclitaxel drug conjugates BSA is employed to prevent aggregation and glycerol, which is a tubulin polymerization enhancer, is omitted from the kit to increase the signal to noise ratio.
The assay kit (#BK011) was purchased from Cytoskeleton (Denver, Colo.). The assays were carried out according to the manufacturer's instructions, except that 1 mg/ml BSA (Sigma #A3059) was included in all assays. […] Parent drugs and conjugates were tested at 0.75, 1.5, 3 and 10 micromolar final concentration and results represent a comparison of conjugate and parent drug curves obtained from the linear range of the dose responses.

[2] = target: T2, deoxyguanosine kinase (dGK) (Homo sapiens, UniProt Q16854); details: substrate activity; literature (Johansson et al.); cited from earlier work
T2 sequence (Q16854 40-277): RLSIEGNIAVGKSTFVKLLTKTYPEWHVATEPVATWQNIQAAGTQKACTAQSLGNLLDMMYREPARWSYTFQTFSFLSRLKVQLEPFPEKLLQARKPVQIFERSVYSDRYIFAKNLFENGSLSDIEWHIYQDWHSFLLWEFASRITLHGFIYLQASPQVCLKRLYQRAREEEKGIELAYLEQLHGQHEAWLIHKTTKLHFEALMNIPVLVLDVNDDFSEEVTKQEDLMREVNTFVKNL

[3] = target: deoxycytidine kinase (dCK) (Homo sapiens, UniProt P27707); details: substrate activity; literature (Johansson et al.; Eriksson et al.; Wang et al.), source per Table 3; cited from earlier work
Sequence of deoxycytidine kinase (dCK) (P27707 whole entry, species assumed): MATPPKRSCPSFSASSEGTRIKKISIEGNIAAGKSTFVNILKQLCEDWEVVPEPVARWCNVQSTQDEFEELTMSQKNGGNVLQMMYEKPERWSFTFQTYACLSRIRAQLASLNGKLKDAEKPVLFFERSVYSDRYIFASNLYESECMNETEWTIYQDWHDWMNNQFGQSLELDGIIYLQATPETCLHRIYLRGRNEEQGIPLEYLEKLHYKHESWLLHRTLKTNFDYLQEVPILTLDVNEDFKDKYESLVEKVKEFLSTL

Compound | Ave. TK1 Kinase Act. [1] | Ave. MPA Act (tubulin) | dGK [2] | dCK [3]
CC[C@]1(O)C[C@@H]2CN(CCc3c([nH]c4ccccc34)[C@@](C(=O)OC)(c3cc4c(cc3OC)N(C)[C@H]3[C@@](O)(C(=O)NCCOCCOCCOCCn5c(=O)c(C)cn([C@H]6C[C@H](O)[C@@H](CO)O6)c5=O)[C@H](O)[C@]5(CC)C=CCN6CC[C@]43[C@@H]65)C2)C1 [VBL-3Am-PEG(11)-N3-THY] | B (B=20-40) | A (A<60) |  | 
CC[C@]1(O)C[C@@H]2CN(CCc3c([nH]c4ccccc34)[C@@](C(=O)OC)(c3cc4c(cc3OC)N(C)[C@H]3[C@@](O)(C(=O)NCCCCCCn5c(=O)c(C)cn([C@H]6C[C@H](O)[C@@H](CO)O6)c5=O)[C@H](O)[C@]5(CC)C=CCN6CC[C@]43[C@@H]65)C2)C1 [VBL-3Am-ALK(6)-N3-THY] | A (A<20) | B (B=60-100) |  | 
O=c1[nH]cnc2c1ncn2C1OC(CO)C(O)C1O (stereo not shown) |  |  | 290 | 
CC[C@]1(O)C[C@@H]2CN(CCc3c([nH]c4ccccc34)[C@@](C(=O)OC)(c3cc4c(cc3OC)N(C)[C@H]3[C@@](O)(C(=O)NCCCn5c(=O)c(C)cn([C@H]6C[C@H](O)[C@@H](CO)O6)c5=O)[C@H](O)[C@]5(CC)C=CCN6CC[C@]43[C@@H]65)C2)C1 [VBL-3Am-ALK(3)-N3-THY] | A (A<20) | C (C>100) |  | 
COc1cccc2c1C(=O)c1c(O)c3c(c(O)c1C2=O)C[C@@](O)(C(=O)CO)C[C@@H]3O[C@H]1C[C@H](NCCCN2C(=O)CC(SCCC(=O)NCCOCCOCCOCCn3c(=O)c(C)cn([C@H]4C[C@H](O)[C@@H](CO)O4)c3=O)C2=O)[C@H](O)[C@H](C)O1.O=C(O)C(F)(F)F (stereo partly shown) [DOX-3′Alk-[MALaPEG](22)-N3-THY] | A (A<20) |  |  | 
CC(=O)O[C@@]12CO[C@@H]1C[C@H](O)[C@@]1(C)C(=O)[C@H](OC(=O)NCCCCCCn3c(=O)c(C)cn([C@@H]4C[C@H](O)[C@@H](CO)O4)c3=O)C3=C(C)[C@@H](OC(=O)[C@H](O)[C@@H](NC(=O)c4ccccc4)c4ccccc4)C[C@@](O)([C@@H](OC(=O)c4ccccc4)[C@H]21)C3(C)C [PXL-10Ca-ALK(6)-N3-αTHY] | A (A<20) | B (B=60-100) |  | 
Nc1ncnc2c1ccn2[C@H]1C[C@H](O)[C@@H](CO)O1 |  |  | 100 | 50
Nc1nc2c(ncn2[C@@H]2O[C@H](CO)[C@@H](O)[C@@H]2O)c(=O)[nH]1 [AraG] |  |  | 180 | 6
CC[C@]1(O)C[C@@H]2CN(CCc3c([nH]c4ccccc34)[C@@](C(=O)OC)(c3cc4c(cc3OC)N(C)[C@H]3[C@@](O)(C(=O)NCCOCCn5c(=O)c(C)cn([C@H]6C[C@H](O)[C@@H](CO)O6)c5=O)[C@H](O)[C@]5(CC)C=CCN6CC[C@]43[C@@H]65)C2)C1 [VBL-3Am-PEG(5)-N3-THY] | A (A<20) | C (C>100) |  | 
CC[C@]1(O)C[C@@H]2CN(CCc3c([nH]c4ccccc34)[C@@](C(=O)OC)(c3cc4c(cc3OC)N(C)[C@H]3[C@@](O)(C(=O)NCCCCn5c(=O)c(C)cn([C@H]6C[C@H](O)[C@@H](CO)O6)c5=O)[C@H](O)[C@]5(CC)C=CCN6CC[C@]43[C@@H]65)C2)C1 [VBL-3Am-ALK(4)-N3-THY] | B (B=20-40) | C (C>100) |  | 
Nc1ncnc2c1ncn2[C@@H]1O[C@H](CO)[C@@H](O)[C@@H]1O [AraA] |  |  | 15 | 50
Nc1nc(Cl)nc2c1ncn2[C@H]1C[C@H](O)[C@@H](CO)O1 [X = O, R3 = OH, R5 = H, B = 2-Cl-Adenine] |  |  | 180 | 
O=c1[nH]cnc2c1ncn2[C@H]1C[C@H](O)[C@@H](CO)O1 [dino] |  |  | 100 | 120
CC(=O)O[C@@]12CO[C@@H]1C[C@H](O)[C@@]1(C)C(=O)[C@H](OC(=O)NCCOCCn3c(=O)c(C)cn([C@@H]4C[C@H](O)[C@@H](CO)O4)c3=O)C3=C(C)[C@@H](OC(=O)[C@H](O)[C@@H](NC(=O)c4ccccc4)c4ccccc4)C[C@@](O)([C@@H](OC(=O)c4ccccc4)[C@H]21)C3(C)C [PXL-10Ca-PEG(5)-N3-αTHY] | A (A<20) | B (B=60-100) |  | 
Nc1nc2c(ncn2C2CC(O)C(CO)C2)c(=O)[nH]1 (stereo not shown) [X = CH2, R3 = OH, R5 = H, B = Guanine] |  |  | 70 | 
CC(=O)O[C@@]12CO[C@@H]1C[C@H](O)[C@@]1(C)C(=O)[C@H](OC(=O)NCCOCCOCCOCCn3c(=O)c(C)cn([C@@H]4C[C@H](O)[C@@H](CO)O4)c3=O)C3=C(C)[C@@H](OC(=O)[C@H](O)[C@@H](NC(=O)c4ccccc4)c4ccccc4)C[C@@](O)([C@@H](OC(=O)c4ccccc4)[C@H]21)C3(C)C [PXL-10Ca-PEG(11)-N3-αTHY] | A (A<20) | B (B=60-100) |  | 
Nc1nc2c(ncn2[C@H]2C[C@H](O)[C@@H](CO)O2)c(=O)[nH]1 [dGuo] |  |  | 50 | 300
Nc1ncnc2c1ncn2C1CC(O)C(CO)O1 (stereo not shown) [dado] |  |  | 100 | 
